# US20260027068A1, “METHODS OF ADM[…]-KETAMINE” (Perception Neuroscience, Inc., priority 2022, published 2026)
# Read-outs that look alike come from different tables or passages of the source.
# Experiments:
# [1] = Phase 1 single ascending dose plasma pharmacokinetics of 40-minute IV infusion of R(−)-ketamine and its metabolites; conditions: for Tmax: all dose levels 5 mg to 150 mg; for AUC(0-inf) / Cmax / AUC(0-t): iv
# Procedure: This was a Phase 1 randomized, placebo-controlled, double-blind, single dose study conducted at one center. […] The pharmacokinetic (PK) population was 36 subjects, with 12 additional subjects receiving placebo. […] Subjects were male or female healthy subjects, 18 to 65 years of age. […] Cohort 1 was dosed at 5 mg, followed by Cohort 2 at 15 mg, Cohort 3 at 30 mg, Cohort 4 at 60 mg, Cohort 5 at 100 mg, and Cohort 6 at 150 mg R(−)-ketamine. […] In addition to the safety and tolerability data, the study also evaluated the dose-related PK of each 40-minute IV infusion of R(−)-ketamine.
# To evaluate the pharmacokinetics of R(−)-ketamine, blood was drawn from subjects for PK analysis at the following sampling times: pre-dose (−30 minutes); and from the start of infusion (5, 10, and 15 minutes [±1 minute], 30 minutes [±5 minutes], 40 minutes [immediately prior to infusion completion], 1, 1.5, 2, and 3 hours [±5 minutes], 4 and 8 hours [±10 minutes], 12 and 24 hours [±15 minutes]).
# Plasma PK parameters of R(−)-ketamine and its metabolites (norketamine, 6-hydroxynorketamine, and dehydronorketamine) evaluated on include the following: • Maximum plasma concentration (Cmax), • Time to Cmax (Tmax), • Area under the plasma concentration curve (AUC0-t, AUC0-∞) • Elimination rate constant (λz), • Half-live (t½) • Clearance (CL, P R(−)-ketamine only), • Volume of distribution (Vz, R(−)-ketamine only), and • Metabolite to parent ratios (area under curve [AUC] and Cmax).
# The dose proportionality was assessed both visually and statistically using calculated Cmax and AUC values. […] Continuous variables: Descriptive statistics included the number of non-missing values (n), arithmetic mean, standard deviation (SD), median, minimum, and maximum values. […] For PK concentration data, the number of non-missing values, number of below limit of quantification (BLQ) values, arithmetic mean, SD, median, minimum, maximum, coefficient of variation (CV %), geometric mean, and geometric CV (geo CV %) values are presented. For PK parameter data, the number of non-missing values, arithmetic mean, SD, median, minimum, maximum, CV %, geometric mean, and geometric CV (geo CV %) values are presented.
# Intravenous administration of allocated blinded study drug (Morning, Day 1) was infused over 40 minutes. Blood collection for plasma PK analysis occurred at infusion 5, 10, 15, 30, 40, 60, and 90 minutes, and 2, 3, 4, 8, and 12 hours after the start of infusion.
# Plasma concentrations of R(−)-ketamine and its metabolites norketamine, 6-hydroxynorketamine, and dehydronorketamine were determined using a suitable validated analytical method with a lower limit of quantitation (LOQ) of 1 ng/mL.
# The linearity of the increase in exposure with respect to the increasing dose administered was evaluated for Cmax and AUC for R(−)-ketamine and its metabolites (norketamine, 6-hydroxynorketamine and dehydronorketamine). […] The power model was used to estimate the slope parameter and the 90% confidence intervals for the slope.
# [2] = tested on: rodents; conditions: cited from earlier work
# [3] = tested on: rats; assay: Alcohol tolerance; type: in vivo
# [4] = Systolic blood pressure (vital signs)
# Procedure: The Investigational Medicinal Product (IMP) R(−)-ketamine hydrochloride in sterile water for intravenous injection was investigated as an […] treatment of TRD. The International Union of Pure and Applied Chemistry (IUPAC) name is of the IMP is (2R)-2-(2-chlorophenyl)-2-(methylamino)cyclohexan-1-one. Subjects received the solution at either 30 mg or 60 mg dose, or a placebo. The IMP or placebo was administered on Day 1 as a single IV infusion via an electronic infusion pump over 40 minutes. The duration of study participation for each subject was up to 29 days including a screening period, a 3-day in-clinic visit, and 2 follow-up visits. 101 subjects were enrolled in approximately 20 study centers in the EU and the US.
# Tympanic or temporal temperature, heart rate, blood pressure (SBP/DBP), respiratory rate, and SpO2 were assessed. Blood pressure and pulse measurements will be assessed with a completely automated device while the subject is supine or semi-supine. Manual techniques will be used only if an automated device is not available. Blood pressure and pulse measurements should be preceded by at least 5 minutes of rest for the subject in a quiet setting without distractions (e.g., television, cell phones). An abnormal blood pressure value at screening may be repeated once after 5 minutes of relaxation to determine the subject's eligibility. Blood pressure was recorded using the same arm and position (supine or semi-supine) throughout the study, where possible. Vital signs (to be taken before blood collection for laboratory tests) consisted of 1 pulse and 3 blood pressure measurements (3 consecutive blood pressure readings will be recorded at intervals of at least 1 minute). The average of the 3 blood pressure readings was recorded in the CRF. A pulse oximeter was used to measure peripheral capillary oxygen saturation (SpO2) continuously from pre-dose until 4-hours post-dose. A pulse oximeter was clipped onto the finger or foot of the subject, and light will be sent through the finger or foot and measured on the other side.
# In these tables, baseline value is defined as the last non-missing value prior to study drug administration.
# [5] = tested on: sigma receptor; conditions: cited from earlier work
# [6] = both, human, plasma, intravenous
compound,measurement,setting,value
"CN[C@@]1(c2ccccc2Cl)CCCCC1=O.Cl [R(−)-ketamine, (2R)-2-(2-chlorophenyl)-2-(methylamino)cyclohexan-1-one]",Earliest timepoint at which concentrations were quantifiable in all subjects,"[1]; after start of infusion, LOQ 1 ng/mL",5 min
same,Vd,[1]; [6],345 to 921 L
same,clearance,[1]; [6],1280 to 1630 mL/min
same,half-life,[1]; [6],184 to 433 min
same,Tmax,"[1]; both, human, plasma, intravenous, Median plasma Tmax",40 min
same,Tmax,"[1]; both, human, plasma, intravenous, Plasma Tmax range",15 to 40 min
same,AUC(0-inf),"[1]; both, human, plasma, 5 mg",64 ng·h/mL
same,Cmax,"[1]; both, human, plasma, 5 mg",33.9 ng/mL
same,AUC(0-t),"[1]; both, human, plasma, 5 mg, Arithmetic mean AUC0-24h, 5 mg R(−)-ketamine IV",63.5 ng·h/mL
same,AUC(0-t),"[1]; both, human, plasma, 5 mg, Arithmetic mean AUC0-t, 5 mg R(−)-ketamine IV",57.5 ng·h/mL
same,AUC(0-inf),"[1]; both, human, plasma, 150 mg",1820 ng·h/mL
same,Cmax,"[1]; both, human, plasma, 150 mg",780 ng/mL
same,AUC(0-t),"[1]; both, human, plasma, 150 mg, Arithmetic mean AUC0-24h, 150 mg R(−)-ketamine IV",1720 ng·h/mL
same,AUC(0-t),"[1]; both, human, plasma, 150 mg, Arithmetic mean AUC0-t, 150 mg R(−)-ketamine IV",1720 ng·h/mL
same,Conditioned place preference,[2]; 20 mg/kg,did not cause conditioned place preference
same,Conditioned place preference,[2]; 40 mg/kg,did cause conditioned place preference
same,Effect on alcohol tolerance,[3],mitigated the effects of alcohol tolerance
same,"Subjects with change from baseline systolic blood pressure >40 mmHg, number",[4]; 30 mg,0 n
same,"Subjects with change from baseline systolic blood pressure >40 mmHg, percent",[4]; 30 mg,0.0%
same,"Subjects with post-baseline systolic blood pressure >180 mmHg, number",[4]; 30 mg,0 n
same,"Subjects with post-baseline systolic blood pressure >180 mmHg, percent",[4]; 30 mg,0.0%
same,Systolic blood pressure: Mean,"[4]; 30 mg, Day 1, 15 minutes",116.8 mmHg
same,Systolic blood pressure: Median,"[4]; 30 mg, Day 1, 15 minutes",119.0 mmHg
same,Systolic blood pressure: Mean,"[4]; 30 mg, Day 1, 40 minutes",120.1 mmHg
same,Systolic blood pressure: Median,"[4]; 30 mg, Day 1, 40 minutes",122.0 mmHg
same,Systolic blood pressure: Mean,"[4]; 30 mg, Day 1, 60 minutes",117.7 mmHg
same,Systolic blood pressure: Median,"[4]; 30 mg, Day 1, 60 minutes",119.5 mmHg
same,Systolic blood pressure: Mean,"[4]; 30 mg, Day 1, 2 hours",118.7 mmHg
same,Systolic blood pressure: Median,"[4]; 30 mg, Day 1, 2 hours",122.0 mmHg
same,Systolic blood pressure: Mean,"[4]; 30 mg, Day 1, 4 hours",119.0 mmHg
same,Systolic blood pressure: Median,"[4]; 30 mg, Day 1, 4 hours",120.0 mmHg
same,Systolic blood pressure: Mean,"[4]; 30 mg, Day 1, 6 hours",118.0 mmHg
same,Systolic blood pressure: Median,"[4]; 30 mg, Day 1, 6 hours",120.0 mmHg
same,Systolic blood pressure: Mean,"[4]; 30 mg, Day 2 - Discharge",118.0 mmHg
same,Systolic blood pressure: Median,"[4]; 30 mg, Day 2 - Discharge",120.0 mmHg
same,Systolic blood pressure: Mean,"[4]; 30 mg, Day 8",119.2 mmHg
same,Systolic blood pressure: Median,"[4]; 30 mg, Day 8",121.0 mmHg
same,Systolic blood pressure: Mean,"[4]; 30 mg, Day 15",123.4 mmHg
same,Systolic blood pressure: Median,"[4]; 30 mg, Day 15",122.0 mmHg
same,"Systolic blood pressure: Change from Baseline, Mean","[4]; 30 mg, to Day 1, 15 minutes",1.2 mmHg
same,"Systolic blood pressure: Change from Baseline, Median","[4]; 30 mg, to Day 1, 15 minutes",−1.0 mmHg
same,"Systolic blood pressure: Change from Baseline, Mean","[4]; 30 mg, to Day 1, 40 minutes",2.0 mmHg
same,"Systolic blood pressure: Change from Baseline, Median","[4]; 30 mg, to Day 1, 40 minutes",0.0 mmHg
same,"Systolic blood pressure: Change from Baseline, Mean","[4]; 30 mg, to Day 1, 60 minutes",2.4 mmHg
same,"Systolic blood pressure: Change from Baseline, Median","[4]; 30 mg, to Day 1, 60 minutes",2.5 mmHg
same,"Systolic blood pressure: Change from Baseline, Mean","[4]; 30 mg, to Day 1, 2 hours",0.6 mmHg
same,"Systolic blood pressure: Change from Baseline, Median","[4]; 30 mg, to Day 1, 2 hours",0.0 mmHg
same,"Systolic blood pressure: Change from Baseline, Mean","[4]; 30 mg, to Day 1, 4 hours",0.9 mmHg
same,"Systolic blood pressure: Change from Baseline, Median","[4]; 30 mg, to Day 1, 4 hours",−1.0 mmHg
same,"Systolic blood pressure: Change from Baseline, Mean","[4]; 30 mg, to Day 1, 6 hours",−0.1 mmHg
same,"Systolic blood pressure: Change from Baseline, Median","[4]; 30 mg, to Day 1, 6 hours",−2.0 mmHg
same,"Systolic blood pressure: Change from Baseline, Mean","[4]; 30 mg, to Day 2 - Discharge",−0.1 mmHg
same,"Systolic blood pressure: Change from Baseline, Median","[4]; 30 mg, to Day 2 - Discharge",−1.0 mmHg
same,"Systolic blood pressure: Change from Baseline, Mean","[4]; 30 mg, to Day 8",1.2 mmHg
same,"Systolic blood pressure: Change from Baseline, Median","[4]; 30 mg, to Day 8",1.0 mmHg
same,"Systolic blood pressure: Change from Baseline, Mean","[4]; 30 mg, to Day 15",5.2 mmHg
same,"Systolic blood pressure: Change from Baseline, Median","[4]; 30 mg, to Day 15",3.0 mmHg
same,"Subjects with change from baseline systolic blood pressure >40 mmHg, number",[4]; 60 mg,1 n
same,"Subjects with change from baseline systolic blood pressure >40 mmHg, percent",[4]; 60 mg,2.9%
same,"Subjects with post-baseline systolic blood pressure >180 mmHg, number",[4]; 60 mg,0 n
same,"Subjects with post-baseline systolic blood pressure >180 mmHg, percent",[4]; 60 mg,0.0%
same,Systolic blood pressure: Mean,"[4]; 60 mg, Day 1, 15 minutes",123.6 mmHg
same,Systolic blood pressure: Median,"[4]; 60 mg, Day 1, 15 minutes",124.5 mmHg
same,Systolic blood pressure: Mean,"[4]; 60 mg, Day 1, 40 minutes",123.0 mmHg
same,Systolic blood pressure: Median,"[4]; 60 mg, Day 1, 40 minutes",122.0 mmHg
same,Systolic blood pressure: Mean,"[4]; 60 mg, Day 1, 60 minutes",123.9 mmHg
same,Systolic blood pressure: Median,"[4]; 60 mg, Day 1, 60 minutes",124.0 mmHg
same,Systolic blood pressure: Mean,"[4]; 60 mg, Day 1, 2 hours",119.0 mmHg
same,Systolic blood pressure: Median,"[4]; 60 mg, Day 1, 2 hours",120.0 mmHg
same,Systolic blood pressure: Mean,"[4]; 60 mg, Day 1, 4 hours",119.1 mmHg
same,Systolic blood pressure: Median,"[4]; 60 mg, Day 1, 4 hours",121.0 mmHg
same,Systolic blood pressure: Mean,"[4]; 60 mg, Day 1, 6 hours",119.7 mmHg
same,Systolic blood pressure: Median,"[4]; 60 mg, Day 1, 6 hours",119.5 mmHg
same,Systolic blood pressure: Mean,"[4]; 60 mg, Day 2 - Discharge",120.8 mmHg
same,Systolic blood pressure: Median,"[4]; 60 mg, Day 2 - Discharge",122.0 mmHg
same,Systolic blood pressure: Mean,"[4]; 60 mg, Day 8",123.2 mmHg
same,Systolic blood pressure: Median,"[4]; 60 mg, Day 8",122.0 mmHg
same,Systolic blood pressure: Mean,"[4]; 60 mg, Day 15",120.3 mmHg
same,Systolic blood pressure: Median,"[4]; 60 mg, Day 15",121.0 mmHg
same,"Systolic blood pressure: Change from Baseline, Mean","[4]; 60 mg, to Day 1, 15 minutes",4.4 mmHg
same,"Systolic blood pressure: Change from Baseline, Median","[4]; 60 mg, to Day 1, 15 minutes",1.5 mmHg
same,"Systolic blood pressure: Change from Baseline, Mean","[4]; 60 mg, to Day 1, 40 minutes",4.9 mmHg
same,"Systolic blood pressure: Change from Baseline, Median","[4]; 60 mg, to Day 1, 40 minutes",3.0 mmHg
same,"Systolic blood pressure: Change from Baseline, Mean","[4]; 60 mg, to Day 1, 60 minutes",5.3 mmHg
same,"Systolic blood pressure: Change from Baseline, Median","[4]; 60 mg, to Day 1, 60 minutes",5.0 mmHg
same,"Systolic blood pressure: Change from Baseline, Mean","[4]; 60 mg, to Day 1, 2 hours",0.9 mmHg
same,"Systolic blood pressure: Change from Baseline, Median","[4]; 60 mg, to Day 1, 2 hours",1.0 mmHg
same,"Systolic blood pressure: Change from Baseline, Mean","[4]; 60 mg, to Day 1, 4 hours",1.0 mmHg
same,"Systolic blood pressure: Change from Baseline, Median","[4]; 60 mg, to Day 1, 4 hours",0.0 mmHg
same,"Systolic blood pressure: Change from Baseline, Mean","[4]; 60 mg, to Day 1, 6 hours",1.4 mmHg
same,"Systolic blood pressure: Change from Baseline, Median","[4]; 60 mg, to Day 1, 6 hours",2.0 mmHg
same,"Systolic blood pressure: Change from Baseline, Mean","[4]; 60 mg, to Day 2 - Discharge",2.7 mmHg
same,"Systolic blood pressure: Change from Baseline, Median","[4]; 60 mg, to Day 2 - Discharge",1.0 mmHg
same,"Systolic blood pressure: Change from Baseline, Mean","[4]; 60 mg, to Day 8",5.0 mmHg
same,"Systolic blood pressure: Change from Baseline, Median","[4]; 60 mg, to Day 8",2.0 mmHg
same,"Systolic blood pressure: Change from Baseline, Mean","[4]; 60 mg, to Day 15",2.1 mmHg
same,"Systolic blood pressure: Change from Baseline, Median","[4]; 60 mg, to Day 15",0.0 mmHg
same,Higher affinity to the sigma receptor compared with S(+)-ketamine,[5],15 fold
